From US20140018384A1, “QUINOLINONE DERIVATIVES FOR USE IN THE TREATMENT OF AN AUTOIMMUNE DISEASE AND/OR AN INFLAMMATORY DISEASE” (PRONOXIS AB, priority 2011, published 2014) come the findings set out here.

Structures are written as SMILES. Where two headings read alike, the source gives them in different places.

The subject of the experiment is PLB-985 cells. The experiment in a line: ROS production (isoluminol/HRP luminescence) in PLB-985 cells, Biological Example 1. In kind it is cell-based. How it is done:
To cells (HL-60 or PLB-985) in HBSS medium was added compound (25 or 50 μM), isoluminol and Horse Radish Peroxidase, fraction II. Luminescence was measured for 10-30 minutes and the area under the […] curve was divided by that from a control experiment to give the activity expressed as fold change.
Each assay indicated below was performed at a different site, at a different time, by different personnel and/or using different cell lines, concentrations and controls. The cell line, concentration of example compound and control used in respect of each assay were as indicated below. The values obtained from these different setups (each using an otherwise identical assay) are given as Activity A, B, C, D or E in Table 5 below. The values are expressed as fold increase of NADPH activity in the presence of the relevant of compound (as indicated below) compared to the relevant control (as indicated below).
Activity A: HL-60 cells; 50 μM compound vs. blank Activity B: PLB-985 cells; 25 μM compound vs. blank Activity C, D and E: PLB-985 cells; 25 μM compound vs. DMSO

Setting [1] is: 25 μM compound vs. DMSO, setup C, read-out: Activity C (fold increase of NADPH activity compared to control).
Setting [2] is: 25 μM compound vs. DMSO, setup E, read-out: Activity E (fold increase of NADPH activity compared to control).
Setting [3] is: 25 μM compound vs. blank, read-out: Activity B (fold increase of NADPH activity compared to control).
The mark [4] stands for this setting: 25 μM compound vs. DMSO, setup D, read-out: Activity D (fold increase of NADPH activity compared to control).

For `COc1ccc(NC(=O)Cn2cc(C(=O)c3ccc(C)c(C)c3)c(=O)c3cc4c(cc32)OCO4)c(OC)c1` [Example 30, N-(2,4-Dimethoxyphenyl)-2-[3-(3,4-dimethylbenzoyl)-6,7-methylenedioxy-4-oxo-1-quinolinyl]acetamide], the fold induction at 25 µM is, setting by setting: under setting [1], 28.2; under setting [2], 4.1.

In the case of `COc1ccc(NC(=O)Cn2cc(C(=O)c3ccc(F)cc3)c(=O)c3cc4c(cc32)OCO4)cc1OC` [Example 31, N-(3,4-Dimethoxyphenyl)-2-[3-(4-fluorobenzoyl)-6,7-methylenedioxy-4-oxo-1-quinolinyl]acetamide], the fold induction at 25 µM under setting [1] was 49.5. For the molecule `COc1ccc(C(=O)c2cn(CC(=O)Nc3ccc4c(c3)OCCO4)c3cc4c(cc3c2=O)OCO4)cc1` [Example 58, 2-(3-p-Anisoyl-67-methylenedioxy-4-oxo-1-quinolinyl)-N-(3,4-ethylenedioxyphenyl)acetamide], the fold induction at 25 µM is, setting by setting: under setting [1], 3.6; under setting [3], 2.5. As for `O=C(Cn1cc(S(=O)(=O)c2ccccc2)c(=O)c2cc3c(cc21)OCO3)Nc1ccccc1` [Example 79, 2-(3-Benzenesulfonyl-6,7-methylenedioxy-4-oxo-1-quinolinyl)-N-phenylacetamide], the fold induction at 25 µM under setting [1] was found to be 3.2.

With `COc1cccc2c1c(=O)c(C(=O)c1ccc(F)cc1)cn2CC(=O)Nc1ccc(Cl)cc1` [Example 25], under setting [2], the fold induction at 25 µM was found to be 34.6.

As to `COc1cccc(NC(=O)Cn2cc(C(=O)c3ccccc3)c(=O)c3cc4c(cc32)OCO4)c1` [Example 68, N-(m-Anisyl)-2-(3-benzoyl-6,7-methylenedioxy-4-oxo-1-quinolinyl)acetamide], the fold induction at 25 µM reads like this: under setting [1], 6.7; under setting [3], 10.1. With `COc1ccc(NC(=O)Cn2cc(C(=O)c3ccc(C)cc3)c(=O)c3cc4c(cc32)OCO4)cc1` [Example 46, N-p-Anisyl-2-(6,7-methylenedioxy-4-oxo-3-p-toluoyl-1-quinolinyl)acetamide], the fold induction at 25 µM was 40.7 under setting [1] and 127 under setting [3]. On the same counts, the results for `CCc1ccc(C(=O)c2cn(CC(=O)Nc3ccc(OC)c(OC)c3)c3cc4c(cc3c2=O)OCO4)cc1` [Example 52, N-(3,4-Dimethoxyphenyl)-2-[3-(4-ethylbenzoyl)-6,7-methylenedioxy-4-oxo-1-quinolinyl]acetamide] are 55.6 and 154. On the same counts, the results for `COc1ccc(NC(=O)Cn2cc(C(=O)c3ccc(Cl)cc3)c(=O)c3cc4c(cc32)OCO4)cc1` [Example 90, N-p-Anisyl-2-[3-(4-chlorobenzoyl)-6,7-methylenedioxy-4-oxo-1-quinolinyl]acetamide] are 37.6 and 40.9.

`COc1cc2c(=O)c(C(=O)c3ccc4ccccc4c3)cn(CC(=O)Nc3ccc(Cl)cc3)c2cc1C` [Example 19, N-(4-Chlorophenyl)-2-[6-methoxy-7-methyl-3-(2-naphthoyl)-4-oxo-1-quinolinyl]acetamide]: the fold induction at 25 µM under setting [4] is 10.9. Turning to `COc1cc(OC)c2c(=O)c(C(=O)c3ccc(F)cc3)cn(CC(=O)Nc3ccc(Cl)cc3)c2c1` [Example 44], the fold induction at 25 µM under setting [2] was 78.1. As to `O=C(Cn1cc(C(=O)c2ccc(F)cc2)c(=O)c2cc3c(cc21)OCO3)Nc1ccc(F)cc1` [Example 55, 2-[3-(4-Fluorobenzoyl)-6,7-methylenedioxy-4-oxo-1-quinolinyl]-N-(4-fluorophenyl)acetamide], the fold induction at 25 µM was found to be 19.6 under setting [1] and 6.3 under setting [3].

On to `O=C(Cn1cc(C(=O)c2ccc(F)cc2)c(=O)c2cc3c(cc21)OCO3)Nc1ccc(Cl)cc1` [Example 89, N-(4-Chlorophenyl)-2-[3-(4-fluorobenzoyl)-6,7-methylenedioxy-4-oxo-1-quinolinyl]acetamide], for which the fold induction at 25 µM reads like this: under setting [1], 34.4; under setting [4], 17.1; under setting [3], 33.

For the molecule `COc1ccc(C(=O)c2cn(CC(=O)Nc3cccc(OC)c3)c3cc4c(cc3c2=O)OCO4)cc1` [Example 77], the fold induction at 25 µM under setting [1] amounted to 2.8. For `O=C(Cn1cc(C(=O)c2ccc3ccccc3c2)c(=O)c2cc3c(cc21)OCO3)Nc1ccc(OC(F)(F)F)cc1` [Example 5, 2-[6,7-Methylenedioxy-3-(2-naphthoyl)-4-oxo-1-quinolinyl]-N-(4-trifluoromethoxyphenyl)acetamide], the fold induction at 25 µM under setting [2] came out at 4.3. Consider `COc1ccc(NC(=O)Cn2cc(C(=O)c3ccccc3)c(=O)c3cc4c(cc32)OCO4)cc1` [Example 87, N-p-Anisyl-2-(3-benzoyl-6,7-methylenedioxy-4-oxo-1-quinolinyl)acetamide], for which the fold induction at 25 µM under setting [1] was found to be 27.2. In the case of `O=C(Cn1cc(C(=O)c2ccc3ccccc3c2)c(=O)c2cc3c(cc21)OCO3)Nc1cccc(OC(F)(F)F)c1` [Example 8, 2-[6,7-Methylenedioxy-3-(2-naphthoyI)-4-oxo-1-quinolinyl]-N-(3-trifluoromethoxyphenyl)acetamide], under setting [2], the fold induction at 25 µM came to 1.3. Turning to `COc1ccc(NC(=O)Cn2cc(C(=O)c3ccco3)c(=O)c3cc4c(cc32)OCO4)cc1` [Example 26, N-p-Anisyl-2-[3-(2-furoyl)-6,7-methylenedioxy-4-oxo-1-quinolinyl]acetamide], under setting [1], the fold induction at 25 µM amounted to 14.9. Regarding `O=C(Cn1cc(C(=O)c2ccc3ccccc3c2)c(=O)c2cc3c(cc21)OCO3)Nc1cccc(Cl)c1` [Example 4, N-(3-chlorophenyl)-2-[6,7-methylenedioxy-3-(2-naphthoyl)-4-oxo-1-quinolinyl]acetamide], the fold induction at 25 µM under setting [2] is 3.4.

Turning to `CCCc1ccc(NC(=O)Cn2cc(C(=O)c3ccc4ccccc4c3)c(=O)c3cc4c(cc32)OCO4)cc1` [Example 9, 2-[6,7-Methylenedioxy-3-(2-naphthoyl)-4-oxo-1-quinolinyl]-N-(4-propylphenyl)acetamide], the fold induction at 25 µM under setting [2] was found to be 2.

For the molecule `O=C(Cn1cc(C(=O)c2ccc(F)cc2)c(=O)c2cc3c(cc21)OCO3)Nc1ccc2c(c1)OCO2` [Example 86, 2-[3-(4-Fluorobenzoyl)-6,7-methylenedioxy-4-oxo-1-quinolinyl]-N-(3,4-methylenedioxyphenyl)acetamide], the fold induction at 25 µM worked out at 28.3 under setting [1] and 22.7 under setting [3].

Regarding `COc1cccc2c(=O)c(C(=O)c3ccc(F)cc3)cn(CC(=O)Nc3ccc(Cl)cc3)c12` [Example 43], under setting [2], the fold induction at 25 µM came to 3.8.

Turning to `O=C(Cn1cc(C(=O)c2ccc(Cl)cc2)c(=O)c2cc3c(cc21)OCO3)Nc1ccc(Cl)cn1` [Example 36, 2-[3-(4-Chlorobenzoyl)-6,7-methylenedioxy-4-oxo-1-quinolinyl]-N-(5-chloro-2-pyridyl)acetamide], under setting [1], the fold induction at 25 µM was 46.4. Still for that read-out and setting: the figure for `O=C(Cn1cc(S(=O)(=O)c2ccc(F)cc2)c(=O)c2cc3c(cc21)OCO3)Nc1ccc(F)cc1` [Example 83, 2-[3-(4-Fluorobenzenesulfonyl)-6,7-methylenedioxy-4-oxo-1-quinolinyl]-N-(4-fluorophenyl)acetamide] is 2. Consider `O=C(Cn1cc(C(=O)c2ccc3ccccc3c2)c(=O)c2cc3c(cc21)OCO3)Nc1ccc(Cl)c(Cl)c1` [Example 7, N-(3,4-Dichlorophenyl)-2-[6,7-methylenedioxy-3-(2-naphthoyl)-4-oxo-1-quinolinyl]acetamide], for which the fold induction at 25 µM under setting [2] came to 2.2. As to `COc1ccc(NC(=O)Cn2cc(C(=O)c3ccc(F)cc3)c(=O)c3cc(Cl)ccc32)cc1` [Example 109, N-p-Anisyl-2-[6-chloro-3-(4-fluorobenzoyl)-4-oxo-1-quinolinyl]acetamide], the fold induction at 25 µM under setting [4] came to 2.5. Consider `COc1ccc2c(c1)c(=O)c(C(=O)c1ccc3ccccc3c1)cn2CC(=O)Nc1ccc(Cl)cc1` [Example 16, N-(4-Chlorophenyl)-2-[6-methoxy-3-(2-naphthoyl)-4-oxo-1-quinolinyl]acetamide], for which the fold induction at 25 µM reads like this: under setting [4], 35.4; under setting [2], 5.9. As for `CCc1ccc(C(=O)c2cn(CC(=O)Nc3ccc4c(c3)OCO4)c3cc4c(cc3c2=O)OCO4)cc1` [Example 78, 2-[3-(4-Ethylbenzoyl)-6,7-methylenedioxy-4-oxo-1-quinolinyl]-N-(3,4-methylenedioxyphenyl)acetamide], under setting [1], the fold induction at 25 µM was 11.6. As to `Cc1ccc(C(=O)c2cn(CC(=O)Nc3ccc(F)cc3)c3cc4c(cc3c2=O)OCO4)cc1C` [Example 72, 2-[3-(3,4-Dimethylbenzoyl)-6,7-methylenedioxy-4-oxo-1-quinolinyl]-N-(4-fluorophenyl)acetamide], the fold induction at 25 µM under setting [1] was 33.6 and the fold induction at 25 µM under setting [3] amounted to 62.6. Regarding `CCOc1ccc(NC(=O)Cn2cc(C(=O)c3ccc(C)cc3)c(=O)c3cc4c(cc32)OCO4)cc1` [Example 70, N-(4-Ethoxyphenyl)-2-(6,7-methylenedioxy-4-oxo-3-p-toluoyl-1-quinolinyl)acetamide], the fold induction at 25 µM came out at 25.4 under setting [1] and 33.2 under setting [3].

Turning to `COc1cccc(NC(=O)Cn2cc(C(=O)c3ccc(C)c(C)c3)c(=O)c3cc4c(cc32)OCO4)c1` [Example 75, N-m-Anisyl-2-[3-(3,4-dimethylbenzoyl)-6,7-methylenedioxy-4-oxo-1-quinolinyl]acetamide], the fold induction at 25 µM was found to be 5.3 under setting [1] and 7.7 under setting [3].
